# Measured values: ChEMBL document CHEMBL2424633, “Evaluation of the Influence of thiosemicarbazone-triazole hybrids on genes implicated in lipid oxidation and accumulation as potential anti-obesity agents” (2013)
# Calls of active or inactive are those of the source. No cut-off for these calls is given here.
# Key:
# 3T3-L1 [1] = assay: Downregulation of ACC-1 gene expression in mouse 3T3L1 cells at […] after 4 days by RT-PCR analysis relative to insulin; assay type: functional
# 3T3-L1 [2] = assay: Upregulation of CPT-1 gene expression in mouse 3T3L1 cells at […] after 4 days by RT-PCR analysis relative to insulin; assay type: functional
# 3T3-L1 [3] = assay: Downregulation of ACC-1 gene expression in mouse 3T3L1 cells at […] after 4 days by RT-PCR analysis relative to untreated control; assay type: functional
# 3T3-L1 [4] = assay: Upregulation of CPT-1 gene expression in mouse 3T3L1 cells at […] after 4 days by RT-PCR analysis relative to untreated control; assay type: functional, cell-based
# 3T3-L1 [5] = assay: Upregulation of PGC-1 gene expression in mouse 3T3L1 cells at […] after 4 days by RT-PCR analysis relative to control; assay type: functional, cell-based
# 3T3-L1 [6] = assay: Downregulation of CPT-1 gene expression in mouse 3T3L1 cells at […] after 4 days by RT-PCR analysis; assay type: functional, cell-based
SMILES,fold change (FC) (3T3-L1 [1]),fold change (FC) (3T3-L1 [2]),fold change (FC) (3T3-L1 [3]),Activity (3T3-L1 [4]),Activity (3T3-L1 [5]),Activity (3T3-L1 [3]),Activity (3T3-L1 [2]),Activity (3T3-L1 [6])
CC(C)CNC(=S)N/N=C\c1ccc(OCc2cn(Cc3ccccc3)nn2)cc1,2,5,2,Active,Active,–,–,–
CCCCCNC(=S)N/N=C\c1ccc(OCc2cn(Cc3ccccc3)nn2)cc1,–,2,–,Active,Active,Active,–,–
OCCCCCCNC(=S)N/N=C\c1ccc(OCc2cn(Cc3ccccc3)nn2)cc1,–,–,–,Active,Active,Active,Active,–
CCCCCCCCNC(=S)N/N=C\c1ccc(OCc2cn(Cc3ccccc3)nn2)cc1,4,–,4,–,Active,–,–,Active
S=C(NCCc1ccccc1)N/N=C\c1ccc(OCc2cn(Cc3ccccc3)nn2)cc1,2,–,2,Active,Active,–,Active,–
OCCNC(=S)N/N=C\c1ccc(OCc2cn(Cc3ccccc3)nn2)cc1,–,–,–,–,inactive,inactive,–,Active
CN(C)CCNC(=S)N/N=C\c1ccc(OCc2cn(Cc3ccccc3)nn2)cc1,2,3,2,Active,inactive,–,–,–
